The values below come from patent US20250129370A1, “METHOD FOR REDUCING HEPATIC TRIGLYCERIDES” (ADAERATA, LIMITED PARTNERSHIP, priority 2022, published 2025).

For series [1], the system named is PCSK7 mRNA. In words: PCSK7 mRNA qPCR after miRNA overexpression in HEK293T cells. Particulars: 48 hours after transfection. Format: cell-based, human. On the procedure: RNA was isolated from the cells with the TRIzol™ Reagent (Invitrogen, USA) according to the manufacturer's instructions. The RNA samples were treated with RNase-free DNase I (Fermentas, USA) to eliminate any possible DNA contamination. Reverse transcription was performed using the PrimeScript™ First Strand cDNA Synthesis Kit (Takara, Japan) following the manufacturer's protocol. Briefly, one unit of the DNase I enzyme, 1 μL of a buffer, and 1 μg of total RNA were incubated for 30 minutes at 37° C. Then, 1 μL of 50 mM EDTA was added for enzyme inactivation and incubated at 65° C. for 10 minutes. Subsequently, 5 μL of DNase-treated RNA was added to the mix of 0.5 μL of the reverse-transcriptase enzyme, 2 μL of the reverse-transcriptase buffer, and 1 μL of a random hexamer and incubated for 15 minutes at 37° C., followed by 5 seconds at 85° C. for enzyme inactivation. Stem-loop RT-qPCR method was applied for evaluating the expression of miRNAs (Kramer, 2011). […]
All the reactions were repeated in duplicates. Next, melt curves were analyzed, with the mean threshold cycles used for further analyses. The relative expressions of the miRNAs and PCSK7 to RNU48 small nuclear RNA and/or GAPDH and β2m were calculated, respectively, via the 2-ΔΔCt method. […]
(In general: In qPCR the cycle at which signal appears reflects the starting amount.)

Series [2] has as its system PC7. In words: PC7 shedding of hTfR1 into the media, Huh7 cells. Format: cell-based, human. Conditions: Huh7, 2×, 3× and 5× miR-125a-5p vector. As to the method: FIGS. 32A-B Western blot (FIG. 32A) and quantitative (FIG. 32B) analysis of human PC7 and TFR1 expression in Huh7 cells, in which miR-125-5p was overexpressed. […] X stands for vector DNA fold for miR-125-5p compared to vector expressing PC7. Because both PC7-V5 and hTfR1-V5 were V5-tagged, the WB using a mAb-V5 reflects the expression of both proteins.
In the next step, the effect of miR-125a-5p on PC7 function was determined. First, the miR-125a-5p-overexpressing vector and its related mock plasmids were co-transfected with the pIRES vector (Invitrogen, USA), containing the full length of cDNA encoding the PCSK7 mRNA with the complete 3′-UTR in Huh7 cells. […] Thereafter, the impact of miR-125a-5p on the enzymatic function of PC7 was assessed by co-transfecting Huh7 cells with the miR-125a-5p-overexpressing vector, with that coding for the full length of PCSK7, and a plasmid encoding hTfR1 (Guillemot et al., 2013; Durand et al., 2020). […]
Subsequently, proteins were isolated with an ice-cold RIPA buffer (1×), comprising 50 mM of Tris hydrochloride (pH 8), 150 mM of sodium chloride, 0.1% sodium dodecyl sulfate, 1% Nonidet P40, 0.25% sodium deoxycholate, and a cocktail of protease inhibitors (Roche, Oakville, ON, Canada). […] Subsequently, immunoreactive bands (the signal) were visualized with an enhanced chemiluminescent reaction kit (Bio-Rad, USA) and recorded via chemiluminescence. […]

On to “miR-125a-5p: miRNA targeting PCSK7 3′-UTR and exons 14 and 15, overexpressed from pEGFP-C1 precursor vector (UCCCUGAGACCCUUUAACCUGUGA; miRNA expressed from a pEGFP-C1 precursor vector, further chemistry not given here)”, for which the “reduction in PCSK7 mRNA levels” value in series [1] is listed as ~25%. In series [2], the “ability of PC7 to shed hTfR1 into the media” value was “led to a decline”.
